SMILES strings stand for the structures. pIC50: −log10 of the molar value.

For assay [1], the target named is Epidermal growth factor receptor (Homo sapiens, UniProt P00533). Nature of the assay: Inhibition of EGFR (unknown origin).
The target of a further assay is T1, Secernin-3 (Homo sapiens, UniProt Q0VDG4).
T1 sequence (Q0VDG4 whole entry): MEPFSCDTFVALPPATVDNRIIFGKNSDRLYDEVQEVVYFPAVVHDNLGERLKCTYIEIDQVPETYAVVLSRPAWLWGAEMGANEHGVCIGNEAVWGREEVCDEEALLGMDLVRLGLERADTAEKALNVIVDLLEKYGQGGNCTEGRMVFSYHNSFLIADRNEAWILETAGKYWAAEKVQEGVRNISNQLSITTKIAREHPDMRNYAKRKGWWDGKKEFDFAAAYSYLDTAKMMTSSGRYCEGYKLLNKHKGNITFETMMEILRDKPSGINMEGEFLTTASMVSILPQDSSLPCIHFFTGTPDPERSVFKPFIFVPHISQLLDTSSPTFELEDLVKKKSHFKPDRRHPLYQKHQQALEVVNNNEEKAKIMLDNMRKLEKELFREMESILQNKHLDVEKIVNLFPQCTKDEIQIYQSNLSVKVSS
The experiment in a line: Inhibition of full length human SCRN3 transfected in HEK293T cells. The class given is cell-based.

The test system of another assay is K562. Nature of the assay: Growth inhibition of human K562 cells. The class given is functional.

Chain of Epidermal growth factor receptor (P00533 whole entry): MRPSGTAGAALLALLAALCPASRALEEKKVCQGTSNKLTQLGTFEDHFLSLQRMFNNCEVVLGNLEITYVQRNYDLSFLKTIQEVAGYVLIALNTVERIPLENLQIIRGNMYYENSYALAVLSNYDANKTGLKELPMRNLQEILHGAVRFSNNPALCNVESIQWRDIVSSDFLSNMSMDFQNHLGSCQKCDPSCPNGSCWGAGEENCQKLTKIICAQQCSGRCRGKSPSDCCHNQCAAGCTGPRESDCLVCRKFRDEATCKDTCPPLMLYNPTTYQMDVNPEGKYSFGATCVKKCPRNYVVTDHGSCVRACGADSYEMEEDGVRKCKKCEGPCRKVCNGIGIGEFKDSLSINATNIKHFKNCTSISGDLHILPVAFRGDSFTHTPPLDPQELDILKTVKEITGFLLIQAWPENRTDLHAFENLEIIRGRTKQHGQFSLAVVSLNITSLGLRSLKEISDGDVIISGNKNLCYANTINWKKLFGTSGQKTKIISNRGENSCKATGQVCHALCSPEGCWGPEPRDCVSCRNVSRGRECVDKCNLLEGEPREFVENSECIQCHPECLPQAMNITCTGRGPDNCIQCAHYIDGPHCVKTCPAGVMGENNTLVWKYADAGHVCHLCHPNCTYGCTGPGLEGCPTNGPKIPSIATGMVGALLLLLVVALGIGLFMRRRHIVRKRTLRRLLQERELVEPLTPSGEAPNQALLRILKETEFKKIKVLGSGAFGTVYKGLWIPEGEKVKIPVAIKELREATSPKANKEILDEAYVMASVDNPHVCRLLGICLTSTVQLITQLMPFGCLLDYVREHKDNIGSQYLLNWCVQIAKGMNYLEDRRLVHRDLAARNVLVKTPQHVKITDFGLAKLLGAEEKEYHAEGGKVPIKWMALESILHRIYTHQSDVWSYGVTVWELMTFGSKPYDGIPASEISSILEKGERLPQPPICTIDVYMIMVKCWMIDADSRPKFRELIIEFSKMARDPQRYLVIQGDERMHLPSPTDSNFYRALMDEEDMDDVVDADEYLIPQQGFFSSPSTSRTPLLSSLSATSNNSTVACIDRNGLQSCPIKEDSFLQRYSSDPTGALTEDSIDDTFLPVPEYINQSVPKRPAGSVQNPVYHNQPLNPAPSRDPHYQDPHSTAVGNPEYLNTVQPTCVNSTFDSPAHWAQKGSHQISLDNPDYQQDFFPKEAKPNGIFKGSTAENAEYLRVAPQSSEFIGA

The pIC50 is −log10 of the IC50, conventionally taken in molar units. A low value points to a large IC50. On to `C=CC(=O)N1CCN(c2ncnc3c(F)c(-c4c(O)cccc4F)c(Cl)cc23)CC1`, for which the pIC50 in assay [1] is 6.92.

On Secernin-3, `NNc1ccc2ccccc2c1` had a negative logarithm of the IC50 (pIC50) of 6.70.

A word on the GI50: it is the concentration giving 50% growth inhibition. Read a high GI50 as lower sensitivity of the cells. Compound `COc1cc(O)c(C=O)cc1-c1c[nH]c2ncc(-c3cncc(C(=O)N(C)C)c3)cc12` had a concentration for 50% growth inhibition (GI50) with K562 of 55.6 nM. In other words, the double-digit nanomolar range.

The record behind these values is ChEMBL document CHEMBL6134798, “Classifying covalent protein binders by their targeted binding site” (Bioorg Med Chem Lett, 2025).
